Reference: publication PMC7179119, “A New Positron Emission Tomography Probe for Orexin Receptors Neuroimaging” (Molecules, 2020)

What was measured:
[1] = target: T1, human recombinant orexin OX1 receptors (Homo sapiens, UniProt O43613); assay: Human Orexin GPCR Binding (Agonist Radioligand) Assay, [125I] Orexin A competition; settings: radioligand competition binding assay; read-out: IC50 (nM) OXR1
T1 construct: host or cells: CHO-S cells
T1 sequence (O43613 1-425): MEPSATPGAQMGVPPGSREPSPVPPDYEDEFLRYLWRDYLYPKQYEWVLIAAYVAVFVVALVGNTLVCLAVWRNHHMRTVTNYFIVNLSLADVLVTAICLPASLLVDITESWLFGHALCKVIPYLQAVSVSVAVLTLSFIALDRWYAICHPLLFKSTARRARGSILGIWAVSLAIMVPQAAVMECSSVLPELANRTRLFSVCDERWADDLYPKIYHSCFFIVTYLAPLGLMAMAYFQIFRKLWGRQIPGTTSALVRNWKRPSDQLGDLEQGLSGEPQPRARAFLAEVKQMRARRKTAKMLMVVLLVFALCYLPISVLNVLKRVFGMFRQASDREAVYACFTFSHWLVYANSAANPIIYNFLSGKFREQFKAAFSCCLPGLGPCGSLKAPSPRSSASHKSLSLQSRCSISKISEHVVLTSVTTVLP
Method: (§1) Radioligand competition binding assays were performed by Panlabs, Eurofins Pharma Discovery Services. Briefly, human recombinant orexin OX1 receptors expressed in CHO-S cells were used in modified HEPES buffer pH 7.4. […] Orexin A for 60 minutes at 25 °C. […] Orexin A specifically binding. Human recombinant OX2 receptors were used in modified HEPES buffer pH 7.4. […] Orexin A for 180 minutes at 25 °C. […] Orexin A specifically bound.

[2] = target: T2, Human recombinant OX2 receptors (Homo sapiens, UniProt O43614); assay: as above; settings: radioligand competition binding assay; read-out: IC50 (nM) OXR2
T2 sequence (O43614 1-444): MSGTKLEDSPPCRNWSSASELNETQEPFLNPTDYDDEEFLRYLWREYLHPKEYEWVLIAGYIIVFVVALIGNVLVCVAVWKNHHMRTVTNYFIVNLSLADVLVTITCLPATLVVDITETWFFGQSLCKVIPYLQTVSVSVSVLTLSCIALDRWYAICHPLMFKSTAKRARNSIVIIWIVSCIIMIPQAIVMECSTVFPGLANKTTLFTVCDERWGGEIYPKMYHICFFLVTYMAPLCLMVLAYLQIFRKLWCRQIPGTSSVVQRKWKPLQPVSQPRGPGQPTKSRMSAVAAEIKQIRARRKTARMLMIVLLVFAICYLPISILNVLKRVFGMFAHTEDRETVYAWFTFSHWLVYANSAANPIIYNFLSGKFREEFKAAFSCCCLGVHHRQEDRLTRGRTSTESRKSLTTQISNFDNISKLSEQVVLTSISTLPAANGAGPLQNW
Method: as §1

[3] = tested on: OXRs; assay: Mouse PET-CT blocking study of [^11C]CW24 uptake; format: in vivo, mice
Method: (§2) Animals were anesthetized with 1–1.5% isoflurane and maintained with isoflurane during the imaging scan. In a single imaging session, mice were arranged in a Triumph PET/CT scanner (Gamma Medica, Northridge, CA). […] Animals underwent a 60 min dynamic PET scan followed by computed tomography (CT).
(§3) PET data were reconstructed using a 3D-MLEM method resulting in a full width at half-maximum resolution of 1 mm. PET and CT images in DICOM format were imported to PMOD (PMOD Technologies, Ltd. Zürich, Switzerland) and co-registered to the brain atlas. Volumes of interest (VOIs) were drawn as spheres in brain regions guided by CT structural images and summed PET data. Time-activity curves (TACs) were exported as activity per unit volume (%ID/cc) for analysis.

[4] = Macaque PET-MR imaging and Logan plot kinetic modeling; format: in vivo, rhesus macaque; settings: all brain regions examined
Method: A male rhesus macaque (14.4 kg) was included in this study. After endotracheal intubation, the macaque was catheterized antecubitally for radiotracer injection and a radial arterial line was placed for arterial blood sampling and radiometabolite analysis. The animal was anesthetized with 1.2–1.3% Isoflurane in medical oxygen throughout the imaging session. PET-MR data was acquired on a 3T Siemens MRI scanner (Munich, Germany) with a BrainPET insert. A baseline and a blocking scan were performed on the same animal. Dynamic PET image acquisition was initiated followed by a bolus administration of [^11C]CW24 (179 MBq for the baseline scan and 192 MBq for the blocking scan). To characterize the specific binding of [^11C]CW24, a blocking study was carried out in which 2.0 mg/kg IPSU (1.0 % DMSO + 1.0 % Tween 80 + 98.0 % saline to make a solution of 1.0 mg/mL) was administered 5 min prior the acquisition. A T1-weighting multi-echo magnetization-prepared rapid gradient-echo ([…]) sequence began as the PET scan for anatomic co-registration. […]
Motion-corrected PET data were registered to the INIA19 macaque MRI Template. […] With the availability of a metabolite-corrected arterial plasma data, the regional volume of distribution (VT) was calculated using Logan Plot analysis (with a fixed t* of 40 min).

[5] = Mouse PET-CT imaging, brain uptake; format: in vivo; settings: mice, i.v., baseline
Method: as §2, §3

[6] = Plasma and metabolite analysis; format: in vivo, rhesus macaque; settings: macaque arterial plasma, at 30 min
Method: Briefly, arterial blood samples collected (every 10 s at first 3 min post-administration of [^11C]CW24, then 5 min, 10 min, 20 min, 30 min, 45 min, 60 min, and 90 min) during macaque imaging were centrifuged to separate plasma, which was then removed and placed in an automated gamma counter. Metabolite analysis of blood samples collected from 5 to 90 min was conducted on a custom automated robot fitted with Phenomenex SPE Strata-X 500 mg solid phase extraction cartridges that were primed with ethanol (2 mL) and deionized water (20 mL). Protein precipitation was achieved by the addition of plasma (300 μL) to acetonitrile (300 μL), which was centrifuged for 1 min to obtain protein-free plasma (PFP). Three hundred microliters of PFP/acetonitrile solution was diluted into deionized water (3 mL), loaded onto the C18 cartridge, and removed of polar metabolites with 100% water. Next, a series of extractions was performed using water and acetonitrile. Each sample was counted in a WIZARD2 Automatic Gamma Counter to determine the presence of radiolabeled metabolites.

[7] = tested on: OX2R; settings: OX2R vs OX1R; cited from earlier work

COc1ccnc(N2CCC3(CCCN(Cc4c[nH]c5ccccc45)C3=O)CC2)n1 [IPSU, reference compound]
IC50 [1]: 1090 nM | IC50 [2]: 3130 nM | reduction in [^11C]CW24 uptake ([3]; mice brain, 0.5 mg/kg IPSU i.v. 5 min pretreatment, 30–60 mins post-injection): Approximately 10% | reduction in [^11C]CW24 uptake ([3]; mice brain, 2.0 mg/kg IPSU i.v. 5 min pretreatment): approximately 50%

Cc1ccc(-n2nccn2)c(C(=O)N2CCN(c3nc4cc(Cl)ccc4o3)CC[C@H]2C)c1 [Suvorexant]
reduction in [^11C]CW24 uptake ([3]; mouse brain, Suvorexant 5.0 mg/kg i.v., 30–60 mins post-injection): approximately 50%

COc1ccnc(N2CCC3(CCCN(Cc4cn([11CH3])c5ccccc45)C3=O)CC2)n1 [[^11C]CW24]
peak standard uptake value (SUV) [4]: 1.5–3.0 | brain uptake %ID/cc at Cmax [5]: 3.5 %ID/cc | parent compound in plasma [6]: ~ 47%

orexin-B: orexin peptide with 28 amino acids
higher affinity for OX2R compared with OX1R [7]: 10 fold
